According to patent US9957253B2, “Triaminopyrimidine compounds useful for preventing or treating malaria” (MMV MEDICINES FOR MALARIA VENTURE, priority 2014, dated 2018):

Columns and labels:
[1] = tested on: P. falciparum field isolates; experiment: Ex vivo drug susceptibility (schizont maturation) of P. falciparum field isolates; type: cell-based; settings: Plasmodium falciparum; Plasmodium field isolates, ex vivo; read-out: P. falciparum IC50
Procedure: (§1) Further, compounds of the invention (Examples 2 and 13) were also tested against field isolates of falciparum and vivax malaria, along with three control antimalarials as described in the protocol below.
(§2) Ex Vivo Activity of Examples 2 and 13 Against Drug Resistant P. falciparum and P. Vivax Field Isolates
(§3) Standard antimalarial drugs chloroquine (CQ), amodiaquine (AQ), piperaquine (PIP), mefloquine (MFQ), and artesunate (AS) and compounds of the invention were prepared as 1 mg/mL stock solutions in H2O or dimethyl sulfoxide (DMSO) according to the manufacturers' instructions. Drug plates were pre-dosed by diluting the compounds in 50% Methanol followed by lyophilisation and stored at 4° C.
(§4) Plasmodium isolates were collected from patients attending malaria clinics in Timika (Papua, Indonesia), a region endemic for multi-drug-resistant strains of P. vivax and P. falciparum. Patients with symptomatic malaria presenting to an outpatient facility were recruited into the study if singly infected with P. falciparum or P. vivax, with a parasitaemia of between 2,000 μl-1 and 80,000 μl-1, and the majority (>80%) of parasites at ring stage of development. Venous blood (5 mL) was collected by venipuncture and after removal of host white blood cells by using cellulose (Sigma-Aldrich, Australia) filtration, packed infected red blood cells (iRBCs) were used for the ex vivo drug susceptibility assay.
(§5) Drug susceptibility of P. vivax and P. falciparum isolates was measured using a protocol modified from the WHO microtest as described previously (Marfurt et al., 2011, Antimicrob Agents Chemother., 55(9):4461). Two hundred μL of a 2% haematocrit Blood Media Mixture (BMM), consisting of RPMI 1640 medium plus 10% AB+ human serum (P. falciparum) or McCoy's 5 A medium plus 20% AB+ human serum (P. vivax), was added to each well of pre-dosed drug plates containing 11 serial concentrations (2-fold dilutions) of the antimalarials (maximum concentration shown in brackets) CQ (2,992 nM), AQ (158 nM), PIP (1,029 nM), MFQ (338 nM), AS (49 nM), and a compound of the invention (2,146 nM). A candle jar was used to mature the parasites at 37.0° C. for 35-56 hours.
(§6) Thick blood films made from each well were stained with 5% Giemsa solution for 30 minutes and examined microscopically. The number of schizonts per 200 asexual stage parasites was determined for each drug concentration and normalised to the control well. The dose-response data were analysed using nonlinear regression analysis (WinNonLn 4.1, Pharsight Corporation) and the IC50 value derived using an inhibitory sigmoid Emax model. […] Drug plate quality was assured by running schizont maturation assays (two independent experiments) with the chloroquine-resistant strain K1 and the chloroquine-sensitive strain FC27.
(§7) For microscopy slide reading QC, two randomly selected drugs per isolate were read by a second microscopist. […] If necessary, discrepant results were resolved by a third reading by an expert microscopist.

[2] = Pharmacokinetic studies (IVPK/POPK) in male Beagle dogs; type: in vivo; settings: Dog
Procedure: All in vivo studies were approved by the institutional animal ethics committee. Pharmacokinetics following IV bolus (IVPK) or oral administration (POPK) of compounds was determined in male Wistar rats or male Beagle dogs. For IVPK in rats, Example 7 and Example 10 were administered as solutions in 20% DMA, 80% phosphate-buffered saline and Example 13 was administered as a solution in 10% v/v NMP, 20% v/v DMA in saline. For POPK, Example 7 and Example 10 were administered as suspensions in 20% DMA, 80% phosphate buffered saline and Example 13 was administered as a suspension in 0.5% HPMC and 0.1% Tween 80 through an oral gavage. Example 13 was administered to dogs as a solution in 10% Ethanol, 30% PEG 400, 60% saline for IVPK and as a suspension in 0.5% HPMC, and 0.1% Tween 80 for POPK. Doses used for rat and dog PK were 0.5 mg/kg for Examples 7 and 10 or 2 mg/kg for Example 13 (IVPK). Doses of 5 mg/kg for Examples 7 and 10 were used during POPK. Doses of 10 mg/kg were used for Example 13 during POPK studies. Blood samples were collected at 8 to 13 time points (0, 0.0833, 0.25, 0.283, 0.333, 0.417, 0.75, 1.25, 3.25, 6.25, 12.25, 24.25 h for dog IVPK; 0, 0.25, 0.5, 1, 1.5, 2, 3, 4, 8, 12, 24, 32, 48 h for dog POPK; 0.083, 0.25, 0.5, 1, 2, 4, 7, 24 h for rat IVPK; 0.25, 1, 3, 6, 12, 24, 36, 48 h for rat POPK) after dosing. Blood (rat) or plasma (dog) samples were analysed by LC-MS/MS. PK parameters were estimated by non-compartmental analysis in Phoenix®.

[3] = Blood:Plasma (BP) ratio, dog; type: in vitro ADME; settings: 10 μM, 37° C., 30 min
Procedure: Determination of Blood:Plasma (BP) Ratio
The incubation plate and the dog blood/plasma was preheated at 37° C. for 10 minutes. 2 μL of working solution of each compound was added to 398 μL of dog reference plasma or blood to achieve a final concentration of 10 μM. Plates were incubated at 37° C. with shaking for 30 min. After incubation, the blood samples are spun for 10 min. at 4,000 rpm (37° C.) and the plasma samples were stored at 37° C. Aliquots (100 μL) of plasma separated from centrifuged whole blood samples and reference plasma samples were transferred into 96-well plates. 400 μL of cold acetonitrile was added to precipitate protein and release compound. After vortexing for 10 min., plates were centrifuged for 30 min. at 4,000 rpm. 250 μL of the supernatant was transferred to new 96-well plates and centrifuged again at 4,000 rpm for 30 min. 100 μL of the supernatant was used for analysis by LC-MS/MS.

[4] = Pharmacokinetics in the blood of infected Pf/SCID mice; type: in vivo; settings: 40 mg/kg
Procedure: Pharmacokinetics in the Blood of Infected Pf/SCID Mice:
Peripheral blood samples (25 μl) were taken at different times (0.25, 0.5, 1, 2, 4, 6, 8 and 23 hours), mixed with 25 µl of H2O mili Q and immediately frozen on dry ice. The frozen samples were stored at −80° C. until analysis. Vehicle-treated mice experienced the same blood-sampling regimen. Blood samples were processed by liquid-liquid extraction by mixing 10 μl diluted blood with 180 μl AcN:MeOH (80:20; v:v) mixture. Quantitative analysis by LC/MSMS was performed using UPLC (Waters) and Sciex API4000. The lower limit of quantification (LLOQ) in this assay was 0.005 μg/ml.

[5] = tested on: P. vivax field isolates; experiment: Ex vivo drug susceptibility (schizont maturation) of P. vivax field isolates; type: cell-based; settings: Plasmodium vivax; Plasmodium field isolates, ex vivo; read-out: P. vivax IC50
Procedure: as §1, §2, §3, §4, §5, §6, §7

SMILES | IC50 [1] | Oral ‘F’ ([2]; oral 10 mg/kg) | ½ life (PO PK) ([2]; oral 10 mg/kg) | clearance ([2]; male, Beagle, blood, IV bolus 2 mg/kg, read-out: CL blood) | Vd ([2]; male, Beagle, blood, IV bolus 2 mg/kg, read-out: Vss blood) | BP ratio [3] | Blood Cmin (minimum parasiticidal concentration, MPC) [4] | IC50 [5]
Cc1nc(Nc2ncc(N3CCN(C)[C@H](C)C3)c(Nc3cc(C)n(C)n3)n2)cc(C2CC2)c1F [Example 13, (R)—N2-(4-cyclopropyl-5-fluoro-6-methylpyridin-2-yl)-N4-(1,5-dimethyl-1H-pyrazol-3-yl)-5-(3,4-dimethylpiperazin-1-yl)pyrimidine-2,4-diamine] | 74.6 nM | 82% | 9 h | 19 mL/min/kg | 16 L/kg | 1.35 | 40 nM | 85.6 nM
Cc1nc(Nc2ncc(N3CCN[C@H](C)C3)c(Nc3cnn(C)n3)n2)cc(C2CC2)c1Cl [Example 10, (R)—N2-(5-chloro-4-cyclopropyl-6-methylpyridin-2-yl)-N4-(2-methyl-2H-1,2,3-triazol-4-yl)-5-(3-methylpiperazin-1-yl)pyrimidine-2,4-diamine dihydochloride] | – | – | – | – | – | 1.7 | – | –
